Experimental findings from patent US7285541B2, “Treatment of melanoma by reduction in clusterin levels” (The University of British Columbia, priority 2002, dated 2007) are described below.

For data set [1], the system named is 607B melanoma cells. As to the kind of experiment: Cell number of 607B melanoma cells measured photometrically using MTS. The format is cell-based, human. The procedure: Lipofectin™ (lip) without oligonucleotide was used as a control. Cells numbers in 96 well plates were measured photometrically using MTS (Cell Titer 96™, […]).
For data set [2], the system named is bcl-xL. As to the kind of experiment: bcl-xL expression in clusterin-expressing melanoma cells (Western blotting). The format is cell-based, human. The text has this: While chaperone-like function has been proposed for the clusterin protein, the specific molecular mechanism responsible for clusterin's role in apoptosis remains elusive. In the human melanoma cell line that expressed clusterin at a very low levels, over-expression of clusterin by stable transfection not only led to a marked increase in resistance to a cytotoxic treatment (FIG. 3), but led also to an up-regulation of the anti-apoptotic bcl-2 family member bcl-xL as shown by Western blotting. […] Thus, clusterin regulates the anti-apoptotic bcl-2 family member bcl-xL. Such inhibition is significant because bcl-xL is known to act as an inhibitor of apoptosis (See U.S. Pat. No. 6,182,216 which is incorporated herein by reference in those jurisdictions permitting such incorporation).

For data set [3], the system named is 518A2 cells. The data set is described as follows: Sensitivity of antisense-treated melanoma cells to consecutive cisplatin treatment. The class given is cell-based, human. The following applies: another melanoma cell line (FIG. 2, 518A2), compared to control-mismatch oligonucleotide.
In data set [4] the test system is human melanoma cells. The data set is described as follows: Apoptotic cell death of human melanoma cells after antisense treatment. The class given is cell-based. Conditions: antisense treatment alone.
Data set [5] concerns clusterin. As to the kind of experiment: Clusterin expression in human melanoma cells by RT-PCR and western-blot. The following applies: as compared to the scrambled mismatch control. The format is cell-based. The procedure:
Expression of clusterin in two different batches of normal human melanocytes (NHEM 6083 and 2489) and four human melanoma cell lines (518A2, SKMEL-28, Mel-Juso and 607B). Cells were grown in 6 cm dishes and harvested when they were 80-90% confluent. 30 μg of protein per lane was applied onto a 10% SDS-Page gel and probed with a polyclonal goat anti-clusterin antibody. Panceau red stain and an antibody directed against β-actin were used as a loading control. In each case, the antisense inhibitor of clusterin used is based on the advanced antisense chemistry 2′MOE as described in U.S. patent application Ser. No. 10/080,794 and has the sequence of Seq. ID. NO. 4.
FIG. 2 provides a graphic representations of clusterin expression in 518A2 cells after treatment with cisplatin and either an antisense oligonucleotide or a scrambled control. Lip is a Lipofectin control without oligonucleotide. Detection was performed using an antibody directed against clusterin.

Data set [6] has as its system Mel Juso melanoma cells. As to the kind of experiment: Cell survival of Mel Juso melanoma cells (Neo or clusterin overexpression) in cisplatin, Cell-titer 96. The class given is cell-based, human. Conditions: 10 μM cisplatin, clusterin-overexpressing vs empty vector (Neo) Mel Juso cells. As for the experimental part:
Mel Juso melanoma cells stably tranfected with either an empty control vector (Neo) or a vector directing overepression of clusterin were grown in medium containing 10 μM cisplatin. Cell survival was measured using the Cell-titer 96 kits from Promega.

e = 2'-O-(2-methoxyethyl) (MOE); d = 2'-deoxy (DNA)

Consider “cagcagcagagtcttcatcat (CAGCAGCAGAGTCTTCATCAT; sugars from the 5' end e4 d13 e4, all phosphorothioate, methylation of C not given here) [MOE modification of Seq. ID. NO. 4]”, for which, in data set [1] (607B melanoma cell line, antisense treatment alone), the cell death entry is “complete cell death”. In addition, the cell counts result in data set [1] (607B melanoma cells, antisense at 250 and 500 nM on two consecutive days, vs scrambled control 100 nM and Lipofectin) is “significantly reduced”. Further, the “expression of bcl-xL” value in data set [2] was “marked down-regulation”. In data set [3], the “sensitivity of surviving cells to consecutive treatment with cisplatin” value is listed as “increased sensitivity”. In data set [4], the apoptotic cell death result was “increase in apoptotic cell death”. For the same compound, the “down-regulation of clusterin on the mRNA level” value in data set [5] (RT-PCR) is “dose dependent down-regulation”. For the same compound, in data set [5] (western-blot), the “down-regulation of clusterin on the protein level” value is listed as “dose dependent down-regulation”.
With `N.N.[Cl][Pt][Cl]` [cisplatin], in data set [6], the “effectiveness of the chemotherapy agent (cell survival)” value is “reduced the effectiveness”.
